Test results: US10590129B2 (Incozen Therapeutics Pvt. Ltd., priority 2010, dated 2020)

Experiments:
MKN-45 cells = assay: Inhibition of MKN-45 proliferation (MTT); type: cell-based, human; conditions: for inhibition at 0.1 µM / inhibition at 1 µM: Homo sapiens, MKN-45, MKN-45 proliferation; for inhibition at 0.1 µM / Inhibition (% Inhibition of MKN-45 proliferation): 0.1 μM
In short: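 High-Met human gastric adenocarcinoma MKN-45 cells plated in complete growth medium, compounds added next day and viability read 3 days later by MTT dye reduction.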

Row | Compound | inhibition at 0.1 µM (MKN-45 cells) [%] | inhibition at 1 µM (MKN-45 cells; 1 μM) [%] | melting point [°C] | Inhibition (% Inhibition of MKN-45 proliferation) (MKN-45 cells; MKN-45 proliferation) | % inhibition @ 1 uM (MKN-45 cells; MKN-45 proliferation, 1 μM) | inhibition at 1 µM (MKN-45 cells; 1 μM, number printed instead of class) [%]
1 | CC(C)(C)NC(=O)c1ccc(-c2ccc3nnn(Cc4ccc5ncccc5c4)c3n2)cc1F [Ex 60, N-tert-Butyl-2-fluoro-4-(3-(quinolin-6-ylmethyl)-3H-[1,2,3]triazolo[4,5-b]pyridin-5-yl) benzamide] | < 25 | < 25 | 210 to 212 | – | – | –
2 | C=CCNC(=O)c1ccc(-c2ccc3nnn(Cc4ccc5ncccc5c4)c3n2)cc1F [Ex 61, N-Allyl-2-fluoro-4-(3-(quinolin-6-ylmethyl)-3H-[1,2,3]triazolo[4,5-b]pyridin-5-yl) benzamide] | 75 to 100 | 75 to 100 | 162 to 164 | – | – | –
3 | CONC(=O)c1ccc(-c2ccc3nnn(Cc4ccc5ncccc5c4)c3n2)cc1F [Ex 62, 2-Fluoro-N-methoxy-4-(3-(quinolin-6-ylmethyl)-3H-[1,2,3]triazolo[4,5-b]pyridin-5-yl)benzamide] | – | – | 197 to 199 | A (A = ≥75 to 100%) | A (A = ≥75 to 100%) | –
4 | CC(=O)Nc1ccc(-c2ccc3nnn(Cc4ccc5ncccc5c4)c3n2)cc1 [Ex 63, N-(4-(3-(quinolin-6-ylmethyl)-3H-[1,2,3]triazolo[4,5-b]pyridin-5-yl)phenyl)acetamide] | < 25 | 50 to 75 | 220 to 223 | – | – | –
5 | Nc1ccc(-c2ccc3nnn(Cc4ccc5ncccc5c4)c3n2)cc1 [Ex 64, 4-(3-(quinolin-6-ylmethyl)-3H-[1,2,3]triazolo[4,5-b]pyridin-5-yl)aniline] | – | 25 to 50 | 190 to 193 | – | – | –
6 | COc1ccc(-c2ccc3nnn(Cc4ccc5ncccc5c4)c3n2)cc1OC [Ex 65, 6-((5-(3,4-Dimethoxyphenyl)-3H-[1,2,3]triazolo[4,5-b]pyridin-3-yl)methyl)quinoline] | < 25 | < 25 | 149 to 152 | – | – | –
7 | COc1ccc(-c2ccc3nnn(Cc4ccc5ncccc5c4)c3n2)cc1F [Ex 66, 6-((5-(3-Fluoro-4-methoxyphenyl)-3H-[1,2,3]triazolo[4,5-b]pyridin-3-yl)methyl)quinoline] | < 25 | 25 to 50 | 187 to 190 | – | – | –
8 | Fc1ccc(-c2ccc3nnn(Cc4ccc5ncccc5c4)c3n2)cc1 [Ex 67, 6-((5-(4-Fluorophenyl)-3H-[1,2,3]triazolo[4,5-b]pyridin-3-yl)methyl)quinoline] | < 25 | – | 153 to 156 | – | – | 13.8
9 | Fc1ccccc1-c1ccc2nnn(Cc3ccc4ncccc4c3)c2n1 [Ex 68, 6-((5-(2-Fluorophenyl)-3H-[1,2,3]triazolo[4,5-b]pyridin-3-yl)methyl)quinoline] | < 25 | < 25 | 164 to 166 | – | – | –
10 | CC(=O)Nc1cccc(-c2ccc3nnn(Cc4ccc5ncccc5c4)c3n2)c1 [Ex 69, N-(3-(3-(quinolin-6-ylmethyl)-3H-[1,2,3]triazolo[4,5-b]pyridin-5-yl)phenyl)acetamide] | < 25 | < 25 | 198 to 201 | – | – | –
11 | FC(F)(F)COc1cccc(-c2ccc3nnn(Cc4ccc5ncccc5c4)c3n2)c1 [Ex 70, 6-((5-(3-(2,2,2-Trifluoroethoxy)phenyl)-3H-[1,2,3]triazolo[4,5-b]pyridin-3-yl)methyl)quinoline] | < 25 | < 25 | 151 to 154 | – | – | –
12 | Nc1cccc(-c2ccc3nnn(Cc4ccc5ncccc5c4)c3n2)c1 [Ex 71, 3-(3-(quinolin-6-ylmethyl)-3H-[1,2,3]triazolo[4,5-b]pyridin-5-yl)aniline] | < 25 | 25 to 50 | 187 to 189 | – | – | –
13 | CN(C)CCCNC(=O)c1ccc(-c2ccc3nnn(Cc4ccc5ncccc5c4)c3n2)cc1F [Ex 72, N-(3-(dimethylamino)propyl)-2-fluoro-4-(3-(quinolin-6-ylmethyl)-3H-[1,2,3]triazolo[4,5-b]pyridin-5-yl)benzamide] | – | – | 148 to 150 | D (D = <25%) | – | –
14 | CC(C)Oc1ccc(-c2ccc3nnn(Cc4ccc5ncccc5c4)c3n2)cc1F [Ex 75, 6-((5-(3-Fluoro-4-isopropoxyphenyl)-3H-[1,2,3]triazolo[4,5-b]pyridin-3-yl)methyl)quinoline] | < 25 | < 25 | 128 to 130 | – | – | –
15 | CN(C)C(=O)CCNC(=O)c1ccc(-c2ccc3nnn(Cc4ccc5ncccc5c4)c3n2)cc1F [Ex 76, N-(3-(dimethylamino)-3-oxopropyl)-2-fluoro-4-(3-(quinolin-6-ylmethyl)-3H-[1,2,3]triazolo[4,5-b]pyridin-5-yl)benzamide] | 75 to 100 | 50 to 75 | 163 to 165 | – | – | –
16 | CN(C)C(=O)CNC(=O)c1ccc(-c2ccc3nnn(Cc4ccc5ncccc5c4)c3n2)cc1F [Ex 77, N-(2-(dimethylamino)-2-oxoethyl)-2-fluoro-4-(3-(quinolin-6-ylmethyl)-3H-[1,2,3]triazolo[4,5-b]pyridin-5-yl)benzamide] | 50 to 75 | 50 to 75 | 177 to 179 | – | – | –
17 | O=C(NCC(=O)N1CCCC1)c1ccc(-c2ccc3nnn(Cc4ccc5ncccc5c4)c3n2)cc1F [Ex 78, 2-Fluoro-N-(2-oxo-2-(pyrrolidin-1-yl)ethyl)-4-(3-(quinolin-6-ylmethyl)-3H-[1,2,3]triazolo[4,5-b]pyridin-5-yl)benzamide] | 50 to 75 | 50 to 75 | 175 to 177 | – | – | –
18 | Fc1cc(-c2ccc3nnn(Cc4ccc5ncccc5c4)c3n2)ccc1OCC1CC1 [Ex 79, 6-((5-(4-(Cyclopropylmethoxy)-3-fluorophenyl)-3H-[1,2,3]triazolo[4,5-b]pyridin-3-yl)methyl)quinoline] | < 25 | 50 to 75 | 160 to 162 | – | – | –
19 | CC(C)COc1ccc(-c2ccc3nnn(Cc4ccc5ncccc5c4)c3n2)cc1F [Ex 80, 6-((5-(3-Fluoro-4-isobutoxyphenyl)-3H-[1,2,3]triazolo[4,5-b]pyridin-3-yl)methyl)quinoline] | < 25 | 25 to 50 | 115 to 157 | – | – | –
20 | CN(C)CCCOc1ccc(-c2ccc3nnn(Cc4ccc5ncccc5c4)c3n2)cc1F [Ex 81, 3-(2-Fluoro-4-(3-(quinolin-6-ylmethyl)-3H-[1,2,3]triazolo[4,5-b]pyridin-5-yl)phenoxy)-N,N-dimethylpropan-1-amine] | 50 to 75 | 75 to 100 | 102 to 105 | – | – | –
21 | Fc1cc(-c2ccc3nnn(Cc4ccc5ncccc5c4)c3n2)ccc1OC1CCOCC1 [Ex 85, 6-((5-(3-Fluoro-4-(tetrahydro-2H-pyran-4-yloxy)phenyl)-3H-[1,2,3]triazolo[4,5-b]pyridin-3-yl)methyl)quinoline] | < 25 | 75 to 100 | 165 to 167 | – | – | –
22 | COCCOc1ccc(-c2ccc3nnn(Cc4ccc5ncccc5c4)c3n2)cc1F [Ex 86, 6-((5-(3-Fluoro-4-(2-methoxyethoxy)phenyl)-3H-[1,2,3]triazolo[4,5-b]pyridin-3-yl)methyl)quinoline] | < 25 | 75 to 100 | 122 to 124 | – | – | –
23 | CCCNC(=O)c1ccc(-c2ccc3nnn(Cc4ccc5ncccc5c4)c3n2)cc1F [Ex 87, 2-Fluoro-N-propyl-4-(3-(quinolin-6-ylmethyl)-3H-[1,2,3]triazolo[4,5-b]pyridin-5-yl)benzamide] | 75 to 100 | < 25 | 157 to 159 | – | – | –
24 | Cl.O=C(NC1CC1)c1ccc(-c2ccc3nnn(Cc4ccc5ncccc5c4)c3n2)cc1F [Ex 89, N-Cyclopropyl-2-fluoro-4-(3-(quinolin-6-ylmethyl)-3H-[1,2,3]triazolo[4,5-b]pyridin-5-yl)benzamide hydrochloride] | 75 to 100 | < 25 | 105 to 107 | – | – | –
25 | O=C(NCC1CC1)c1ccc(-c2ccc3nnn(Cc4ccc5ncccc5c4)c3n2)cc1F [Ex 90, N-(Cyclopropylmethyl)-2-fluoro-4-(3-(quinolin-6-ylmethyl)-3H-[1,2,3]triazolo[4,5-b]pyridin-5-yl)benzamide] | 50 to 75 | 75 to 100 | 120 to 122 | – | – | –
26 | CCCCNC(=O)c1ccc(-c2ccc3nnn(Cc4ccc5ncccc5c4)c3n2)cc1F [Ex 91, N-Butyl-2-fluoro-4-(3-(quinolin-6-ylmethyl)-3H-[1,2,3]triazolo[4,5-b]pyridin-5-yl)benzamide] | 25 to 50 | 50 to 75 | 100 to 102 | – | – | –
27 | O=C(NCc1ccco1)c1ccc(-c2ccc3nnn(Cc4ccc5ncccc5c4)c3n2)cc1F [Ex 92, 2-Fluoro-N-(furan-2-ylmethyl)-4-(3-(quinolin-6-ylmethyl)-3H-[1,2,3]triazolo[4,5-b]pyridin-5-yl)benzamide] | – | < 25 | 144 to 147 | – | – | –
28 | O=C(NCC(F)(F)F)c1ccc(-c2ccc3nnn(Cc4ccc5ncccc5c4)c3n2)cc1F [Ex 93, 2-Fluoro-4-(3-(quinolin-6-ylmethyl)-3H-[1,2,3]triazolo[4,5-b]pyridin-5-yl)-N-(2,2,2-trifluoroethyl)benzamide] | 25 to 50 | 25 to 50 | 194 to 196 | – | – | –
29 | COCCNC(=O)c1ccc(-c2ccc3nnn(Cc4ccc5ncccc5c4)c3n2)cc1F [Ex 94, 2-Fluoro-N-(2-methoxyethyl)-4-(3-(quinolin-6-ylmethyl)-3H-[1,2,3]triazolo[4,5-b]pyridin-5-yl)benzamide] | 50 to 75 | < 25 | 162 to 164 | – | – | –
